Results on 3 compounds are retold here after PubChem BioAssay AID1745844 (Carcinogenic Potency Database (CPDB), 2022).

Several values for one entry are separate records, joined by “and”; a condition that tells them apart may be missing. Equal values may be shown once. Activity calls are given as the source filed them. The rule behind the calls is not given here.

Usually TD50 stands for the dose at which the toxic effect under study appears in half of the subjects.

The subject of the data set is rodent lifetime carcinogenesis bioassay, tumor incidence TD50. In words: chronic cancer bioassays in animals – CPDB, compiled studies (AID 1745844).

Turning to `O=C1CCc2ccccc2O1`, the TD50 reads like this: (mouse, strain B6C3F1, females, by gavage, site: all sites, lesion: hemangioma + hemangiosarcoma, dosed 103 weeks, study length 104 weeks) 4810 mg/kg/day; (mouse, strain B6C3F1, females, by gavage, site: all sites, lesion: hemangiosarcoma, dosed 103 weeks, study length 104 weeks) 6140 mg/kg/day; (mouse, strain B6C3F1, females, by gavage, site: any site (literature study), lesion: several types, types named in the paper, dosed 103 weeks, study length 104 weeks) 541 mg/kg/day; (mouse, strain B6C3F1, females, by gavage, site: liver, lesion: hepatocellular adenoma + hepatoblastoma + hepatocellular carcinoma, dosed 103 weeks, study length 104 weeks) 723 mg/kg/day; (mouse, strain B6C3F1, females, by gavage, site: liver, lesion: hepatocellular adenoma + hepatocellular carcinoma, dosed 103 weeks, study length 104 weeks) 723 mg/kg/day; (mouse, strain B6C3F1, females, by gavage, site: liver, lesion: hepatocellular adenoma, dosed 103 weeks, study length 104 weeks) 790 mg/kg/day. For the same compound, the TD50 is, setting by setting: (mouse, strain B6C3F1, females, by gavage, site: lung, lesion: alveolar/bronchiolar adenoma + alveolar/bronchiolar carcinoma, dosed 103 weeks, study length 104 weeks) 96100 mg/kg/day; (mouse, strain B6C3F1, males, by gavage, site: all sites, lesion: histiocytic sarcoma + malignant lymphoma, histiocytic type + malignant lymphoma, lymphocytic type + malignant lymphoma, dosed 103 weeks, study length 104 weeks) 3320 mg/kg/day; (mouse, strain B6C3F1, males, by gavage, site: all sites, lesion: malignant lymphoma, histiocytic type + malignant lymphoma, mixed type + malignant lymphoma, lymphocytic type + malignant lymph, dosed 103 weeks, study length 104 weeks) 3780 mg/kg/day (inactive); (mouse, strain B6C3F1, males, by gavage, site: any site (literature study), lesion: several types, types named in the paper, dosed 103 weeks, study length 104 weeks) 1400 mg/kg/day; (mouse, strain B6C3F1, males, by gavage, site: liver, lesion: hepatocellular adenoma + hepatoblastoma + hepatocellular carcinoma, dosed 103 weeks, study length 104 weeks) 2890 mg/kg/day; (mouse, strain B6C3F1, males, by gavage, site: lung, lesion: alveolar/bronchiolar adenoma + alveolar/bronchiolar carcinoma, dosed 103 weeks, study length 104 weeks) 3260 mg/kg/day. Moreover, the TD50 (mouse, strain B6C3F1, males, by gavage, site: lung, lesion: alveolar/bronchiolar adenoma, dosed 103 weeks, study length 104 weeks) came to 596 mg/kg/day; the TD50 (rat, strain Fischer 344, females, by gavage, site: adrenal medulla, lesion: pheochromocytoma benign, bilateral + pheochromocytoma, benign, dosed 103 weeks, study length 104 weeks) is 538 mg/kg/day (inactive); the TD50 (rat, strain Fischer 344, females, by gavage, site: any site (literature study), lesion: several types, types named in the paper, dosed 103 weeks, study length 104 weeks) came out at 3180 mg/kg/day; the TD50 (rat, strain Fischer 344, males, by gavage, site: any site (literature study), lesion: several types, types named in the paper, dosed 38 weeks, study length 104 weeks) stood at 1370 mg/kg/day; the TD50 (rat, strain Fischer 344, males, by gavage, site: any site (literature study), lesion: several types, types named in the paper, dosed 64 weeks, study length 104 weeks) is 186 mg/kg/day; the TD50 (rat, strain Fischer 344, males, by gavage, site: any site (literature study), lesion: several types, types named in the paper, dosed 103 weeks, study length 104 weeks) amounted to 143 mg/kg/day. For the same compound, the TD50 by setting is: (rat, strain Fischer 344, males, by gavage, site: kidney, lesion: transitional-cell carcinoma, dosed 103 weeks, study length 104 weeks) 11800 mg/kg/day; (rat, strain Fischer 344, males, by gavage, site: kidney, lesion: tubule adenoma, dosed 38 weeks, study length 104 weeks) 310 mg/kg/day; (rat, strain Fischer 344, males, by gavage, site: kidney, lesion: tubule adenoma, dosed 64 weeks, study length 104 weeks) 408 mg/kg/day; (rat, strain Fischer 344, males, by gavage, site: kidney, lesion: tubule adenoma, dosed 103 weeks, study length 104 weeks) 3870 mg/kg/day and 2970 mg/kg/day; (rat, strain Fischer 344, males, by gavage, site: liver, lesion: hepatocellular adenoma + hepatoblastoma + hepatocellular carcinoma, dosed 38 weeks, study length 104 weeks) 819 mg/kg/day; (rat, strain Fischer 344, males, by gavage, site: liver, lesion: hepatocellular adenoma + hepatoblastoma + hepatocellular carcinoma, dosed 103 weeks, study length 104 weeks) 1380 mg/kg/day. For the same compound, the TD50 runs as follows: (rat, strain Fischer 344, males, by gavage, site: skin, lesion: basal-cell adenoma + keratoacanthoma + squamous-cell papilloma, dosed 64 weeks, study length 104 weeks) 258 mg/kg/day; (rat, strain Fischer 344, males, by gavage, site: skin, lesion: basal-cell adenoma, dosed 64 weeks, study length 104 weeks) 378 mg/kg/day; (rat, strain Fischer 344, males, by gavage, site: skin, lesion: fibroma, dosed 64 weeks, study length 104 weeks) 403 mg/kg/day; (rat, strain Fischer 344, males, by gavage, site: testis, lesion: interstitial-cell adenoma, dosed 64 weeks, study length 104 weeks) 51.7 mg/kg/day; (rat, strain Fischer 344, males, by gavage, site: testis, lesion: interstitial-cell adenoma, dosed 103 weeks, study length 104 weeks) 70.6 mg/kg/day.

With `CC(=O)CN(CC(C)=O)N=O`, the TD50 is 0.684 mg/kg/day (rat, strain Fischer 344, females, by gavage, site: liver, lesion: hepatocellular carcinoma, dosed 30 weeks, study length 95 weeks); 0.892 mg/kg/day (rat, strain Fischer 344, females, in drinking water, site: liver, lesion: hemangiosarcoma, dosed 50 weeks, study length 75 weeks); 0.582 mg/kg/day (rat, strain Fischer 344, females, in drinking water, site: liver, lesion: hepatocellular carcinoma, dosed 50 weeks, study length 75 weeks); 0.232 mg/kg/day (rat, strain Fischer 344, females, in drinking water, site: liver, lesion: several types, types named in the paper, dosed 50 weeks, study length 75 weeks); 0.399 mg/kg/day (rat, strain Fischer 344, females, in drinking water, site: lung, lesion: several types, types named in the paper, dosed 50 weeks, study length 75 weeks); 1.56 mg/kg/day (rat, strain MRC-Wistar, males, by gavage, site: colorectum, lesion: one or several types, types not named, dosed 104 weeks, study length 104 weeks). In addition, the TD50 runs as follows: (rat, strain MRC-Wistar, males, by gavage, site: liver, lesion: one or several types, types not named, dosed 104 weeks, study length 104 weeks) 1.56 mg/kg/day; (rat, strain MRC-Wistar, males, by gavage, site: lung, lesion: one or several types, types not named, dosed 104 weeks, study length 104 weeks) 1.92 mg/kg/day; (rat, strain MRC-Wistar, males, by gavage, site: nasal cavity, lesion: one or several types, types not named, dosed 104 weeks, study length 104 weeks) 1.56 mg/kg/day; (rat, strain MRC-Wistar, males, by gavage, site: prostate, lesion: carcinoma, dosed 74 weeks, study length 74 weeks) 1.53 mg/kg/day; (rat, strain MRC-Wistar, males, by gavage, site: prostate, lesion: squamous-cell carcinoma, keratinized, dosed 104 weeks, study length 104 weeks) 2.41 mg/kg/day; (rat, strain MRC-Wistar, males, by gavage, site: thyroid gland, lesion: one or several types, types not named, dosed 104 weeks, study length 104 weeks) 3.16 mg/kg/day. In addition, the TD50 runs as follows: (rat, strain MRC-Wistar, males, by gavage, site: urethra, lesion: several types, types named in the paper, dosed 104 weeks, study length 104 weeks) 0.891 mg/kg/day; (rat, strain MRC, females, by gavage, site: any site (literature study), lesion: one or several types, types not named, dosed 73 weeks, study length 77 weeks) 0.171 mg/kg/day; (rat, strain MRC, females, by gavage, site: liver, lesion: several types, types named in the paper, dosed 73 weeks, study length 77 weeks) 0.283 mg/kg/day; (rat, strain MRC, females, by gavage, site: lung, lesion: adenoma, dosed 73 weeks, study length 77 weeks) 14 mg/kg/day; (rat, strain MRC, females, by gavage, site: nasal and paranasal cavity, lesion: several types, types named in the paper, dosed 73 weeks, study length 77 weeks) 14 mg/kg/day; (rat, strain MRC, females, by gavage, site: thyroid gland, lesion: several types, types named in the paper, dosed 73 weeks, study length 77 weeks) 1.39 mg/kg/day. In addition, the TD50 by setting is: (rat, strain MRC, males, by gavage, site: any site (literature study), lesion: one or several types, types not named, dosed 72 weeks, study length 80 weeks) 0.0995 mg/kg/day; (rat, strain MRC, males, by gavage, site: colon, lesion: several types, types named in the paper, dosed 72 weeks, study length 80 weeks) 1.6 mg/kg/day; (rat, strain MRC, males, by gavage, site: liver, lesion: several types, types named in the paper, dosed 72 weeks, study length 80 weeks) 0.989 mg/kg/day; (rat, strain MRC, males, by gavage, site: lung, lesion: several types, types named in the paper, dosed 72 weeks, study length 80 weeks) 1.1 mg/kg/day; (rat, strain MRC, males, by gavage, site: nasal and paranasal cavity, lesion: several types, types named in the paper, dosed 72 weeks, study length 80 weeks) 1.23 mg/kg/day; (rat, strain MRC, males, by gavage, site: prostate, lesion: squamous-cell carcinoma, dosed 72 weeks, study length 80 weeks) 2.21 mg/kg/day. The TD50 (rat, strain MRC, males, by gavage, site: thyroid gland, lesion: several types, types named in the paper, dosed 72 weeks, study length 80 weeks) amounted to 0.968 mg/kg/day and the TD50 (rat, strain MRC, males, by gavage, site: urethra, lesion: papilloma, dosed 72 weeks, study length 80 weeks) was 0.878 mg/kg/day.

As to `N[C@@H](CCC(=O)NNc1ccc(C(=O)O)cc1)C(=O)O`, the TD50 by setting is: (mouse, strain Swiss albino, females, by gavage, site: liver, lesion: several types, types named in the paper, dosed 52 weeks, study length 133 weeks) 41400 mg/kg/day; (mouse, strain Swiss albino, males, by gavage, site: lung, lesion: several types, types named in the paper, dosed 52 weeks, study length 133 weeks) 250 mg/kg/day; (mouse, strain Swiss albino, males, by gavage, site: subcutaneous tissue, lesion: fibrosarcoma, dosed 52 weeks, study length 133 weeks) 277 mg/kg/day.
